In ChEMBL document CHEMBL4842370, “Discovery of 1-(phenylsulfonyl)-1H-indole-based multifunctional ligands targeting cholinesterases and 5-HT6 receptor with anti-aggregation properties against amyloid-beta and tau” (Eur J Med Chem, 2021):
Active and inactive are the calls of the source. The calls are words filed in the database; no cut-off is given here.

What was measured:
Cholinesterase = Cholinesterase (Equus caballus, UniProt P81908)
Description: Inhibition of equine serum BuChE using butyrylthiocholine as substrate incubated for 5 mins followed by substrate addition and measured after 5 mins by spectrophotometric based Ellman's method

[1] = molecular target: T1, Amyloid-beta precursor protein (Homo sapiens, UniProt P05067); assay: Inhibition of HFIP-pretreated human recombinant amyloid beta (1 to 42) self aggregation at 10 uM incubated up to 48 hrs under shaking condition and measured every 3 min by Thioflavin T based fluorescence assay relative to control
[2] = molecular target: T2, 5-hydroxytryptamine receptor 6 (Homo sapiens, UniProt P50406); assay: Displacement of [3H]-LSD from human 5HT6R expressed in CHO-K1 cell membranes incubated for 1 hr by scintillation counter method; parameters: species or system Membrane
Acetylcholinesterase = Acetylcholinesterase (Electrophorus electricus, UniProt O42275); assay: Inhibition of electric eel AChE using acetylthiocholine iodide as substrate incubated for 5 mins followed by substrate addition and measured after 5 mins by spectrophotometric based Ellman's method
[3] = molecular target: T1, Amyloid-beta precursor protein; assay: Inhibition of amyloid beta (1 to 42) (unknown origin) aggregation expressed in Escherichia coli BL21 (DE3) at 10 uM incubated for 24 hrs by microplate reader assay relative to control
Homo sapiens = species: Homo sapiens; assay: Inhibition of tau protein (unknown origin) expressed in Escherichia coli BL21 (DE3) at 10 uM incubated for 24 hrs by microplate reader assay relative to control
[4] = molecular target: T2, 5-hydroxytryptamine receptor 6; assay: Antagonist activity at human 5HT6R expressed in 1321N1 cells assessed as inhibition of […] cAMP production measured after 30 mins by TR-FRET assay; format: functional, cell-based; details: filed as antagonist
Cytochrome P450 3A4 = Cytochrome P450 3A4 (Homo sapiens, UniProt P08684); assay: Inhibition of CYP3A4 (unknown origin) at <=10 uM; format: ADME
Cytochrome P450 2D6 = Cytochrome P450 2D6 (Homo sapiens, UniProt P10635); assay: Inhibition of CYP2D6 (unknown origin) at <=10 uM; format: ADME
HepG2 = assay: Cytotoxicity against human HepG2 cells assessed as cell reduction in cell viability incubated for 48 hrs by MTS assay; format: cell-based; details: HepG2, 48 h
[5] = molecular target: T1, Amyloid-beta precursor protein; assay: Inhibition of HFIP-pretreated human recombinant amyloid beta (1 to 42) self aggregation incubated up to 48 hrs under shaking condition and measured every 3 min by Thioflavin T based fluorescence assay
in vitro [6] = details: mouse, liver microsomes
in vitro [7] = details: PAMPA
Description: Permeability coefficient of the compound in PBS buffer incubated for 5 hrs by PAMPA-based LC-MS analysis

T2 sequence (P50406 whole entry): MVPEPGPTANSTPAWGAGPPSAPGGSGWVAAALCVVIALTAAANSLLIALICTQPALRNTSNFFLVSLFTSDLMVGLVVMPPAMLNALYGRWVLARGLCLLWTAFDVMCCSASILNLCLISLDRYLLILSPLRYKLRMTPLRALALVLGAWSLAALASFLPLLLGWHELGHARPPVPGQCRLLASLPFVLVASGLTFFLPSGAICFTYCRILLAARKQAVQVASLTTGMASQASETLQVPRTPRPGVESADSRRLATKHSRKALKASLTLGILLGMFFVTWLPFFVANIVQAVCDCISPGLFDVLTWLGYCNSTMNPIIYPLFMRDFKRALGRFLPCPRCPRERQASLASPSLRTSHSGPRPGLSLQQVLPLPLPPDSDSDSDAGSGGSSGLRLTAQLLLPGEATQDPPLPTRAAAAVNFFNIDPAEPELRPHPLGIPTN
Acetylcholinesterase, sequence (O42275 whole entry): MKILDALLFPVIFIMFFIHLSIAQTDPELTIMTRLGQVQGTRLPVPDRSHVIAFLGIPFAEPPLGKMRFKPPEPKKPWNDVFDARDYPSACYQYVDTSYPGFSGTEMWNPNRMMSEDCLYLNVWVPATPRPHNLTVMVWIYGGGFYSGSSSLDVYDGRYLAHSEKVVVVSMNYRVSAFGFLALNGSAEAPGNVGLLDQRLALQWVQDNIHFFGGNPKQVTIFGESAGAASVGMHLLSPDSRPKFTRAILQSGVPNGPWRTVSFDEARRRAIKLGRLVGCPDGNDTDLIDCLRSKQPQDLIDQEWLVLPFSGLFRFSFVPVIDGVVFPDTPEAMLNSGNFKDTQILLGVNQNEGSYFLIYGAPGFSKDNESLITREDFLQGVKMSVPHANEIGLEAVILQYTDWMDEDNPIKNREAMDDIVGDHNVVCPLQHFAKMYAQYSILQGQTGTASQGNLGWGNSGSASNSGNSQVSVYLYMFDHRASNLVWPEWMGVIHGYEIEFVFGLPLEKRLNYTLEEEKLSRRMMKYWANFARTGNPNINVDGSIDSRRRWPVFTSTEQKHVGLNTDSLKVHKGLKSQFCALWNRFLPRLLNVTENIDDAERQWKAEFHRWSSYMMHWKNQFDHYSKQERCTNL
T1 sequence (P05067 whole entry): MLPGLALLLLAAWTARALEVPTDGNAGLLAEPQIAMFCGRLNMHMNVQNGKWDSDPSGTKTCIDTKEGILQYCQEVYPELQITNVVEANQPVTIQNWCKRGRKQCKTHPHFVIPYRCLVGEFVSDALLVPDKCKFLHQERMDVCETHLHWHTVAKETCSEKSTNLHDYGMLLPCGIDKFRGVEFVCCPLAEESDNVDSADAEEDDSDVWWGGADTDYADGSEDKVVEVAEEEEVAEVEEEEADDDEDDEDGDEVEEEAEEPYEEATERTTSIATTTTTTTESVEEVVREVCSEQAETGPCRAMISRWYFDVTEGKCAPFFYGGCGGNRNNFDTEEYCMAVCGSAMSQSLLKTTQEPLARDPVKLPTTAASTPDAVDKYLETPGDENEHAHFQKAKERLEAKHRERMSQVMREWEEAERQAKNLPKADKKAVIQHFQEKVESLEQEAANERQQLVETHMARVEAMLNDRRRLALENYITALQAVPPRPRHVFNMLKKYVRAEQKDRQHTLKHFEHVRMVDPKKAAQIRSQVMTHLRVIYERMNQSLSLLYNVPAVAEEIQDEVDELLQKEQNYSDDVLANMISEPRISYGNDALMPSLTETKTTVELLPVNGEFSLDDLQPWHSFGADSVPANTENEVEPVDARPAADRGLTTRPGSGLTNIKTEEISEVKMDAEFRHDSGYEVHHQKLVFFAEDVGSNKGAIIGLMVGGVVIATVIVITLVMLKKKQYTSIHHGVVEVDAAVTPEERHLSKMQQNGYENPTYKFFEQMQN
Cholinesterase, sequence (P81908 whole entry): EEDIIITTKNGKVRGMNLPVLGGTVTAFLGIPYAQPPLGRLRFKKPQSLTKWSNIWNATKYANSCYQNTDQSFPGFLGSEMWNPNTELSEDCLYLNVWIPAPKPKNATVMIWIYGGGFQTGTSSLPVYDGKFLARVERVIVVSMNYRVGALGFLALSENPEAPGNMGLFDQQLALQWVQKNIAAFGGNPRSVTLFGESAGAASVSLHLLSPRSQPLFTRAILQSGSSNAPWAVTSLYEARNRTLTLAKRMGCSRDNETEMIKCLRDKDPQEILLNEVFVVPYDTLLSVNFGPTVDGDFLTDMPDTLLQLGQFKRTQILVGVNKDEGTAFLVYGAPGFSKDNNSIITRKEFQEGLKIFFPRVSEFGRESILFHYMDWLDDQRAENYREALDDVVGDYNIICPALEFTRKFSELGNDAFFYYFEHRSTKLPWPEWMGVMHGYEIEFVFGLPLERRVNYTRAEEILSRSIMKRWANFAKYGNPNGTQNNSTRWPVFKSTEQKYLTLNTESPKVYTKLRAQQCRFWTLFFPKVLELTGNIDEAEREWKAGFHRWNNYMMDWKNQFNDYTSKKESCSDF
Cytochrome P450 3A4, sequence (P08684 whole entry): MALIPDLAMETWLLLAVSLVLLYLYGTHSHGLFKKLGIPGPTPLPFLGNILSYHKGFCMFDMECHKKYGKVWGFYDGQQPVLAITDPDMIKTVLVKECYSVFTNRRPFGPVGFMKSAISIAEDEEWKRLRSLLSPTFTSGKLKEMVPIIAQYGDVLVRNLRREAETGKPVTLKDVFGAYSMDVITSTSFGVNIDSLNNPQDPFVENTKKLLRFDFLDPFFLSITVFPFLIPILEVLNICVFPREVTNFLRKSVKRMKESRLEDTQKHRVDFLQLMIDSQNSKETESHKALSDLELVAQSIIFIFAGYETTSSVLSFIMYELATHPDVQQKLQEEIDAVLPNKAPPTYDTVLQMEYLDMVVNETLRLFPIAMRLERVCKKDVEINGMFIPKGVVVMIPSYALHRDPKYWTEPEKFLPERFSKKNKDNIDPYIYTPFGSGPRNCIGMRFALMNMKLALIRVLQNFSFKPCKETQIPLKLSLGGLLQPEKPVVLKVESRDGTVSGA
Cytochrome P450 2D6, sequence (P10635 whole entry): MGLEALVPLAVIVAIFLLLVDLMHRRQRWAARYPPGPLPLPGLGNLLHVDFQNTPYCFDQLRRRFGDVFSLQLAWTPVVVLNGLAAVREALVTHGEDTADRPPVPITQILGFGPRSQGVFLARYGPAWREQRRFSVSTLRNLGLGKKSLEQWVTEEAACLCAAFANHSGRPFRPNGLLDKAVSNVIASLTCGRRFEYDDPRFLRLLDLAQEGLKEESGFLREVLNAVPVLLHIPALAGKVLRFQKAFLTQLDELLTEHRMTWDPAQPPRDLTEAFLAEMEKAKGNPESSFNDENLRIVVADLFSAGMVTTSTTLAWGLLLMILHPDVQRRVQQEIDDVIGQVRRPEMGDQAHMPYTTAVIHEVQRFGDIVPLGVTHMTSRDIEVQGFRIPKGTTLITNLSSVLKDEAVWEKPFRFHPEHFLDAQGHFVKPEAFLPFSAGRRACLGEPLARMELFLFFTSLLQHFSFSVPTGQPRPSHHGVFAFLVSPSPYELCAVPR

| SMILES | IC50 (Cholinesterase) [µM] | inhibition [1] | Ki [2] [µM] | IC50 (Acetylcholinesterase; read-out: IC50) [µM] | inhibition [3] [%] | inhibition (Homo sapiens) [%] | IC50 (Acetylcholinesterase) | Kb [4] [µM] | inhibition (INH) (Cytochrome P450 3A4) | inhibition (INH) (Cytochrome P450 2D6) | IC50 (HepG2) [µM] | IC50 [5] [µM] | metabolised at 2 h (in vitro [6]) [%] | Papp at 5 h (in vitro [7]) [×10⁻⁶ cm/s] |
| --- | --- | --- | --- | --- | --- | --- | --- | --- | --- | --- | --- | --- | --- | --- |
| O=S(=O)(c1ccccc1)n1ccc2c(OCCNCCCNc3c4c(nc5ccccc35)CCCC4)cccc21 | 0.0188 | 61.1% | 0.01 | 0.0209 |  |  |  |  |  |  |  |  |  |  |
| Cc1cccc(CNCCNCCOc2cccc3c2ccn3S(=O)(=O)c2ccccc2)c1 | 1.07 | 57.4% | 0.002 | 4470 | 48.5 | 58.8 |  |  |  |  |  |  |  |  |
| O=S(=O)(c1ccccc1)n1ccc2c(OCCNCCCCCNCc3ccccc3)cccc21 | 0.394 | 62.5% | 0.012 |  | 36.5 | 51.7 | Not Active |  |  |  |  |  |  |  |
| O=S(=O)(c1ccccc1)n1ccc2c(OCCNCCNCc3ccc(F)cc3)cccc21 | 1.3 | 73.4% | 0.0001 | 6210 | 23.7 | 58 |  |  |  |  |  |  |  |  |
| O=[N+]([O-])c1ccc(CNCCNCCOc2cccc3c2ccn3S(=O)(=O)c2ccccc2)cc1 | 4.26 | 57.7% | 0.002 |  | 31.6 | 62.3 | Not Active |  |  |  |  |  |  |  |
| CCN(C)C(=O)Oc1cccc([C@H](C)N(C)C)c1 |  | 86.6% |  |  |  |  |  |  |  |  |  |  |  |  |
| O=S(=O)(c1ccccc1)n1ccc2c(OCCNCCCNCc3ccccc3)cccc21 | 0.701 | 53.2% | 0.008 |  |  |  | Not Active |  |  |  |  |  |  |  |
| COc1ccc(CNCCNCCOc2cccc3c2ccn3S(=O)(=O)c2ccccc2)cc1 | 2.07 | 63.8% | 0.0035 |  | 41.4 | 64 | Not Active |  |  |  |  |  |  |  |
| O=S(=O)(c1ccccc1)n1ccc2c(OCCNCCCCNc3c4c(nc5ccccc35)CCCC4)cccc21 | 0.00939 | 77.4% | 0.0035 | 0.0575 |  |  |  | 0.01 |  |  |  |  |  |  |
| O=S(=O)(c1ccccc1)n1ccc2c(OCCNCCNCc3ccccc3Cl)cccc21 | 0.586 | 57% | 0.003 | 4.24 | 27.5 | 53.5 |  | 0.058 |  |  |  |  |  |  |
| O=S(=O)(c1ccccc1)n1ccc2c(OCCNCCNCc3cc(Cl)cc(Cl)c3)cccc21 | 1.66 | 57.2% | 0.011 |  | 40.9 | 62.3 | Not Active |  |  |  |  |  |  |  |
| O=S(=O)(c1ccccc1)n1ccc2c(OCCNCCNCc3cccc(Cl)c3)cccc21 | 1.07 | 64.3% | 0.002 | 4.84 | 25.7 | 57.5 |  |  |  |  |  |  |  |  |
| O=S(=O)(c1ccccc1)n1ccc2c(OCCNCCNc3c4c(nc5ccccc35)CCCC4)cccc21 | 0.0244 | 74.8% | 0.013 | 0.00842 |  |  |  |  | Not Active | Not Active | 79.6 | 1.1 | 72 |  |
| O=S(=O)(c1ccccc1)n1ccc2c(OCCNCCCCNCc3ccccc3)cccc21 | 0.887 | 41.8% | 0.008 |  |  |  | Not Active |  |  |  |  |  |  |  |
| CCN(C)C(=O)Oc1cccc(CNCCNCCOc2cccc3c2ccn3S(=O)(=O)c2ccccc2)c1 | 0.454 | 68.1% | 0.015 |  | 77.5 | 68.7 | Not Active | 0.048 | Not Active | Not Active | 21.1 | 1.38 | 40 | 1.27 |
| O=S(=O)(c1ccccc1)n1ccc2c(OCCNCCCCCNc3c4c(nc5ccccc35)CCCC4)cccc21 | 0.00217 | 73.2% | 0.007 | 0.303 |  |  |  |  |  |  |  |  |  |  |
| O=S(=O)(c1ccccc1)n1ccc2c(OCCNCCNCc3ccccc3)cccc21 | 0.528 | 55% | 0.003 | 2.87 | 26.9 | 58.1 |  | 0.009 |  |  |  |  |  |  |
| O=S(=O)(c1ccccc1)n1ccc2c(OCCNCCCCCCNc3c4c(nc5ccccc35)CCCC4)cccc21 | 0.00407 | 69.2% | 0.0086 | 0.0725 |  |  |  |  |  |  |  |  |  |  |
| O=S(=O)(c1ccccc1)n1ccc2c(OCCNCCNCc3cccc(C(F)(F)F)c3)cccc21 | 2.12 | inactive | 0.0017 |  | 37.1 | 79.4 | Not Active | 0.007 |  |  |  |  |  |  |
| O=S(=O)(c1ccccc1)n1ccc2c(OCCNCCNCc3ccc(Cl)cc3)cccc21 | 1.99 | 60.6% | 0.001 |  | 31.9 | 58.2 | Not Active |  |  |  |  |  |  |  |
